From patent US20260315446A1, “ANTIFUNGAL COMPOUNDS AND USES THEREOF” (priority 2023, published 2026)
Converted amounts (≈) assume the structure as drawn. Where two headings read alike, the source gives them in different places.

Columns and labels:
[1] = tested on: IL-2 expression in primary mouse CD4+ T cells (mammalian calcineurin); test: In vitro immunosuppressive activity, IL-2 expression (Example 3); type: cell-based; settings: 72 h
Procedure: Modifications at the C-22 position reduce inhibition of mammalian calcineurin signaling Mammalian calcineurin inhibition was then assessed and found to be reduced for these FK520 analogs. The inhibition of mammalian calcineurin was assessed by measuring the reduction of IL-2 expression from primary mouse CD4^+ T cells cultured in the presence of FK506, FK520, or an analog. Calcineurin activity is required for T cell activation and cytokine production, and IL-2 production serves as an effective measure of mammalian calcineurin activity. After culturing mouse CD4′ T cells for 72 h, IL-2 expression was analyzed by flow cytometry to evaluate the immunosuppressive activity of the analogs. […] However, compound concentrations that permit high IL-2 expression are less likely to result in cell death.
Spleen and lymph nodes from C57BL/6 mice were collected and homogenized through a 40-μm filter. Pan-CD4^+ T cells were enriched using the MagniSort Mouse CD4 T Cell Enrichment Kit (Invitrogen). Thereafter, CD4^+CD25^−CD62L^hiCD44^lo naïve CD4^+ T cells were FACS-sorted using a MoFlo Astrios cell sorter (Beckman Coulter). Naïve CD4^+ T cells were cultured in Iscove's Modified Dulbecco's Medium supplemented with 10% fetal bovine serum (FBS), penicillin (10 U/mL), streptomycin (10 μg/mL), glutamine (2 mM), gentamicin (50 μg/mL), and β-mercaptoethanol (55 μM). Cells were cultured for 72 h on anti-hamster IgG-coated plates with hamster anti-CD3s antibodies, hamster anti-CD28 antibodies, neutralizing anti-IL-4 antibodies, recombinant IL-12 (10 ng/mL), and recombinant IL-2 (50 U/mL). During this culture, cells were incubated with serially diluted drugs suspended in DMSO.

[2] = tested on: Cryptococcus neoformans; test: MIC assay (Example 3); type: cell-based; settings: Cryptococcus neoformans
Procedure: (§1) In vitro antifungal activity was assessed for all fungal strains in RPMI 1640 (Sigma-Aldrich R1383). MICs were measured using Clinical and Laboratory Standards Institute (CLSI) M38-A2 and M27-A3 standard in vitro antifungal susceptibility protocols. C. neoformans and A. fumigatus testing was performed at 37° C. MECs for A. fumigatus were recorded after 48 h of growth. C. albicans testing was performed at 30° C. with a uniform concentration of 2 μg/mL of fluconazole to sensitize the cells to calcineurin inhibition.
(§2) C. neoformans clinical isolate H99 and congenic-derived strain KN99α were used (see, Nielsen K, et al., 2003. Infect Immun 71:4831-4841). KN99α-derived frr1Δ deletion mutants with nourseothricin resistance markers as part of the Madhani deletion collection (NIH funding R01AI100272) were used. C. deneoformans strains used include JEC21 and derived C21F2 (CNB1-1) and C21F3 (frr1-3) strains (see, Odom A, et al., 1997. EMBO J 16:2576-2589; Moore T D, Edman J C. 1993. Mol Cell Biol 13:1962-1970; Fox D S, et al., 2001. Mol Microbiol 39:835-849). C. albicans strain SC5314 is the wild-type strain from which mutants YAG171 (rbp1/rbp1) and YAG237 (CNB1-1/CNB1) were derived (see, Cruz M C, et al., 2001. Antimicrob Agents Chemother 45:3162-3170). A. fumigatus strain akuB^Ku80 and a derived FKBP12 mutant fkbp12A were used during antifungal screening (see, Falloon K, et al., 2015. PLoS One 10:e0137869).

[3] = tested on: Candida albicans; test: MIC assay (Example 3); type: cell-based; settings: Candida albicans
Procedure: as §1, §2

[4] = tested on: C. neoformans growth versus IL-2 in murine T cells; test: Therapeutic index score (immunosuppressive fold change to antifungal fold change relative to FK506); parameters: species or system Cryptococcus neoformans; mouse; settings: Example 3; C. neoformans H99, FK506 = 1.0
Excerpt: To assess the therapeutic potential for these compounds, it was important to develop an approach to score and rank them based on antifungal and immunosuppressive activities. The therapeutic index score (TIscore) is a ratio of the immunosuppressive fold change to the antifungal fold change, with all values relative to the baseline FK506 activity (FIG. 6B). A TIscore of >1.0 indicates an increase in fungal specificity because the fold change of the immunosuppressive reduction is greater than the antifungal activity reduction. As an example, JH-FK-05 is 20-fold reduced for antifungal activity but about 180-fold reduced for immunosuppression. Therefore, the TIscore of JH-FK-05 is 9.1 (TIscore=182/20). The top two analogs were JH-FK-02 (TIscore=9.7) and JH-FK-05 (TIscore=9.1). Due to the similar TIscore, JH-FK-05 was prioritized to advance to animal trials on the merit of more pronounced antifungal activity compared to JH-FK-02.
Based on the in vitro fungal and mammalian calcineurin inhibition data, the panel of FK520 analogs was assessed and ranked. Therapeutic index (TI) scores were used to quantify the effects of structural modification on the compounds (Table 8). Therapeutic index scores were calculated for each analog as the ratio of relative change in immunosuppressive and antifungal activities compared to FK506 as previously utilized (see, I-Toy M J, et at. 2022. mBio 13:e0104922). This ratio of therapeutic benefit and host toxicity, or fungal and mammalian calcineurin inhibition, allowed us to quantify and rank these analogs. […] This is the greatest TI found within the library and allowed us to identify JH-FK-08 as a lead candidate for an in vivo study. Tolerability of JH-FK-08 was assessed by monitoring animal responses to drug dosing across 14 days, including changes in weight, fur condition, and behavior. A maximum dose of 40 mg/kg was tested in once a day dosing, and due to solubility limitations, the tolerability of JH-FK-08 at 60 and 80 mg/kg total daily doses was assessed by dosing two equal doses per day (FIG. 14). […] It should be noted that analogs JH-FK-12 and JH-FK-23 are also promising candidates with respective Tis of 24.7 and 24.5.

[5] = tested on: Aspergillus fumigatus; test: MEC assay (Example 3); settings: strain akuB^Ku80
[6] = MIC90, 37° C., read-out: MIC against Cryptococcus neoformans (H99)
[7] = SC5314, MIC80, 30° C. with 2 μg/mL fluconazole, read-out: MIC against Candida albicans (SC5314)
[8] = read-out: MIC against Cryptococcus neoformans (H99)
[9] = SC5314, read-out: MIC against Candida albicans (SC5314)

Row | Compound | IC50 [1] | MIC [2, 6] | MIC ([2]; Table 8, read-out: H99 MIC90) | MIC [3, 7] | Therapeutic index [4] | MEC against Aspergillus fumigatus (akuB^Ku80) [5] | MIC [2, 8] | MIC [3, 9]
1 | CC[C@@H]1/C=C(\C)C[C@H](C)C[C@H](OC)[C@H]2O[C@@](O)(C(=O)C(=O)N3CCCC[C@H]3C(=O)O[C@H](/C(C)=C/C3CC[C@@H](O)[C@H](OC)C3)[C@H](C)[C@@H](O)C/C1=N/NC(=O)c1ccncc1)[C@H](C)C[C@@H]2OC (stereo partly drawn) [JH-FK-09] | 0.0112 µM | 0.8 µg/mL (≈ 0.878 µM) | 0.8 µg/mL (≈ 0.878 µM) | 0.8 µg/mL (≈ 0.878 µM) | 7.8 | 1.3 µg/mL |  | 
2 | CC[C@@H]1/C=C(\C)C[C@H](C)C[C@H](OC)[C@H]2O[C@@](O)(C(=O)C(=O)N3CCCC[C@H]3C(=O)O[C@H](/C(C)=C/C3CC[C@@H](O)[C@H](OC)C3)[C@H](C)[C@@H](O)C/C1=N/NC(N)=O)[C@H](C)C[C@@H]2OC (stereo partly drawn) [JH-FK-12] | 0.0356 µM | 0.8 µg/mL (≈ 0.942 µM) | 0.8 µg/mL (≈ 0.942 µM) | 0.8 µg/mL (≈ 0.942 µM) | 24.7 | 2.5 µg/mL |  | 
3 | CC[C@@H]1/C=C(\C)C[C@H](C)C[C@H](OC)[C@H]2O[C@@](O)(C(=O)C(=O)N3CCCC[C@H]3C(=O)O[C@H](/C(C)=C/[C@@H]3CC[C@@H](O)[C@H](OC)C3)[C@H](C)[C@@H](O)CC1=NNS(=O)(=O)c1ccc(C)cc1)[C@H](C)C[C@@H]2OC [JH-FK-13] |  |  |  |  |  | >10 µg/mL | > 50 µg/mL | > 50 µg/mL
4 | CC[C@@H]1/C=C(\C)C[C@H](C)C[C@H](OC)[C@H]2O[C@@](O)(C(=O)C(=O)N3CCCC[C@H]3C(=O)O[C@H](/C(C)=C/C3CC[C@@H](O)[C@H](OC)C3)[C@H](C)[C@@H](O)C/C1=N/NC(=O)c1cccc(C(=O)NN)c1)[C@H](C)C[C@@H]2OC (stereo partly drawn) [JH-FK-14] | 0.014 µM | 1.6 µg/mL (≈ 1.65 µM) | 1.6 µg/mL (≈ 1.65 µM) | 0.8 µg/mL (≈ 0.826 µM) | 4.9 | 0.6 µg/mL |  | 
5 | CCN/N=C1/C[C@H](O)[C@@H](C)[C@@H](/C(C)=C/C2CC[C@@H](O)[C@H](OC)C2)OC(=O)[C@@H]2CCCCN2C(=O)C(=O)[C@]2(O)O[C@H]([C@@H](OC)C[C@@H](C)C/C(C)=C/[C@H]1CC)[C@@H](OC)C[C@H]2C (stereo partly drawn) [JH-FK-16] | 0.0059 µM |  | 0.4 µg/mL (≈ 0.48 µM) |  | 8.2 |  |  | 
6 | CCNN=C1C[C@H](O)[C@@H](C)[C@@H](/C(C)=C/[C@@H]2CC[C@@H](O)[C@H](OC)C2)OC(=O)[C@@H]2CCCCN2C(=O)C(=O)[C@]2(O)O[C@H]([C@@H](OC)C[C@@H](C)C/C(C)=C/[C@H]1CC)[C@@H](OC)C[C@H]2C [JH-FK-16] |  |  |  |  |  | 1.3 µg/mL | 0.4 µg/mL (≈ 0.48 µM) | 0.4 µg/mL (≈ 0.48 µM)
7 | CC[C@@H]1/C=C(\C)C[C@H](C)C[C@H](OC)[C@H]2O[C@@](O)(C(=O)C(=O)N3CCCC[C@H]3C(=O)O[C@H](/C(C)=C/C3CC[C@@H](O)[C@H](OC)C3)[C@H](C)[C@@H](O)C/C1=N/NC(=O)c1ccc(N)cc1)[C@H](C)C[C@@H]2OC (stereo partly drawn) [JH-FK-20] | 0.0178 µM | 0.8 µg/mL (≈ 0.865 µM) | 0.8 µg/mL (≈ 0.865 µM) | 0.8 µg/mL (≈ 0.865 µM) | 12.3 | 0.6 µg/mL |  | 
8 | CC[C@@H]1/C=C(\C)C[C@H](C)C[C@H](OC)[C@H]2O[C@@](O)(C(=O)C(=O)N3CCCC[C@H]3C(=O)O[C@H](/C(C)=C/C3CC[C@@H](O)[C@H](OC)C3)[C@H](C)[C@@H](O)C/C1=N/NC(=O)NN)[C@H](C)C[C@@H]2OC (stereo partly drawn) [JH-FK-21] | 0.0545 µM |  | 1.6 µg/mL (≈ 1.85 µM) |  | 18.9 |  |  | 
9 | CC[C@@H]1/C=C(\C)C[C@H](C)C[C@H](OC)[C@H]2O[C@@](O)(C(=O)C(=O)N3CCCC[C@H]3C(=O)O[C@H](/C(C)=C/[C@@H]3CC[C@@H](O)[C@H](OC)C3)[C@H](C)[C@@H](O)CC1=NNC(=O)NN)[C@H](C)C[C@@H]2OC [JH-FK-21] |  |  |  |  |  | 2.5 µg/mL | 1.6 µg/mL (≈ 1.85 µM) | 0.8 µg/mL (≈ 0.926 µM)
10 | CC[C@@H]1/C=C(\C)C[C@H](C)C[C@H](OC)[C@H]2O[C@@](O)(C(=O)C(=O)N3CCCC[C@H]3C(=O)O[C@H](/C(C)=C/C3CC[C@@H](O)[C@H](OC)C3)[C@H](C)[C@@H](O)C/C1=N/NC(=O)CO)[C@H](C)C[C@@H]2OC (stereo partly drawn) [JH-FK-22] | 0.045 µM |  | 1.6 µg/mL (≈ 1.85 µM) |  | 15.6 |  |  | 
11 | CC[C@@H]1/C=C(\C)C[C@H](C)C[C@H](OC)[C@H]2O[C@@](O)(C(=O)C(=O)N3CCCC[C@H]3C(=O)O[C@H](/C(C)=C/[C@@H]3CC[C@@H](O)[C@H](OC)C3)[C@H](C)[C@@H](O)CC1=NNC(=O)CO)[C@H](C)C[C@@H]2OC [JH-FK-22] |  |  |  |  |  | 2.5 µg/mL | 1.6 µg/mL (≈ 1.85 µM) | 1.6 µg/mL (≈ 1.85 µM)
12 | CC[C@@H]1/C=C(\C)C[C@H](C)C[C@H](OC)[C@H]2O[C@@](O)(C(=O)C(=O)N3CCCC[C@H]3C(=O)O[C@H](/C(C)=C/C3CC[C@@H](O)[C@H](OC)C3)[C@H](C)[C@@H](O)C/C1=N/NS(C)(=O)=O)[C@H](C)C[C@@H]2OC (stereo partly drawn) [JH-FK-23] | 0.0705 µM | 1.6 µg/mL (≈ 1.81 µM) | 1.6 µg/mL (≈ 1.81 µM) | 1.6 µg/mL (≈ 1.81 µM) | 24.5 | 5 µg/mL |  | 
